Measurements reported in ChEMBL document CHEMBL1158272, “Novel antiplatelet constituents from formosan moraceous plants” (J Nat Prod, 1996).
In brackets after ≈: the same amount, converted by molar mass.

Key:
[1] = Antiplatelet activity against rabbit platelets assessed as arachidonic acid-induced platelet aggregation by turbidimetric method; type: functional, cell-based; conditions: Oryctolagus cuniculus
[2] = Antiplatelet activity against rabbit platelets assessed as arachidonic acid-induced platelet aggregation at 300 uM by turbidimetric method; type: functional, Oryctolagus cuniculus
[3] = Antiplatelet activity against rabbit platelets assessed as collagen-induced platelet aggregation at 300 uM by turbidimetric method; type: functional, Oryctolagus cuniculus
[4] = Antiplatelet activity against rabbit platelets assessed as platelet-activating facto-induced platelet aggregation at 300 uM by turbidimetric method; type: functional, Oryctolagus cuniculus
[5] = Antiplatelet activity against rabbit platelets assessed as thrombin-induced platelet aggregation at 300 uM by turbidimetric method; type: functional, Oryctolagus cuniculus
[6] = Inhibition of ram seminal vesicle cyclooxygenase pretreated 2 mins before arachidonate substrate addition; type: tissue-based, Ovis aries
[7] = Antiplatelet activity against rabbit platelets assessed as platelet-activating facto-induced platelet aggregation at 30 uM by turbidimetric method; type: functional, Oryctolagus cuniculus
[8] = Antiplatelet activity against rabbit platelets assessed as platelet-activating facto-induced platelet aggregation by turbidimetric method; type: functional, cell-based; conditions: Oryctolagus cuniculus
[9] = Antiplatelet activity against rabbit platelets assessed as arachidonic acid-induced platelet aggregation at 30 uM by turbidimetric method; type: functional, Oryctolagus cuniculus
[10] = Antiplatelet activity against rabbit platelets assessed as collagen-induced platelet aggregation by turbidimetric method; type: functional, cell-based; conditions: Oryctolagus cuniculus
[11] = Antiplatelet activity against rabbit platelets assessed as collagen-induced platelet aggregation at 30 uM by turbidimetric method; type: functional, Oryctolagus cuniculus
[12] = Antiplatelet activity against rabbit platelets assessed as thrombin-induced platelet aggregation at 20 uM by turbidimetric method; type: functional, Oryctolagus cuniculus
[13] = Antiplatelet activity against rabbit platelets assessed as platelet-activating facto-induced platelet aggregation at 20 uM by turbidimetric method; type: functional, Oryctolagus cuniculus
[14] = Antiplatelet activity against rabbit platelets assessed as collagen-induced platelet aggregation at 20 uM by turbidimetric method; type: functional, Oryctolagus cuniculus
[15] = Antiplatelet activity against rabbit platelets assessed as arachidonic acid-induced platelet aggregation at 20 uM by turbidimetric method; type: functional, Oryctolagus cuniculus
[16] = Antiplatelet activity against rabbit platelets assessed as collagen-induced platelet aggregation at 50 uM by turbidimetric method; type: functional, Oryctolagus cuniculus
[17] = Antiplatelet activity against human platelets in platelet rich plasma assessed as adrenaline-induced platelet aggregation at 50 uM pretreated 3 mins before adrenaline challenge by turbidimetric method; type: functional
[18] = Antiplatelet activity against rabbit platelets assessed as platelet-activating facto-induced platelet aggregation at 50 uM by turbidimetric method; type: functional, Oryctolagus cuniculus
[19] = Antiplatelet activity against rabbit platelets assessed as arachidonic acid-induced platelet aggregation at 50 uM by turbidimetric method; type: functional, Oryctolagus cuniculus
[20] = Antiplatelet activity against rabbit platelets assessed as thrombin-induced platelet aggregation at 50 uM by turbidimetric method; type: functional, Oryctolagus cuniculus
[21] = Antiplatelet activity against human platelets in platelet rich plasma assessed as adrenaline-induced platelet aggregation at 100 uM pretreated 3 mins before adrenaline challenge by turbidimetric method; type: functional
[22] = Antiplatelet activity against human platelets in platelet rich plasma assessed as adrenaline-induced platelet aggregation at 300 uM pretreated 3 mins before adrenaline challenge by turbidimetric method; type: functional
[23] = Antiplatelet activity against human platelets in platelet rich plasma assessed as adrenaline-induced platelet aggregation at 150 uM pretreated 3 mins before adrenaline challenge by turbidimetric method; type: functional
[24] = Antiplatelet activity against rabbit platelets assessed as platelet-activating facto-induced platelet aggregation at <100 uM by turbidimetric method; type: functional, Oryctolagus cuniculus
[25] = Antiplatelet activity against rabbit platelets assessed as arachidonic acid-induced platelet aggregation at <100 uM by turbidimetric method; type: functional, Oryctolagus cuniculus
[26] = Antiplatelet activity against rabbit platelets assessed as collagen-induced platelet aggregation at <100 uM by turbidimetric method; type: functional, Oryctolagus cuniculus
[27] = Antiplatelet activity against rabbit platelets assessed as thrombin-induced platelet aggregation at <100 uM by turbidimetric method; type: functional, Oryctolagus cuniculus
[28] = Antiplatelet activity against rabbit platelets assessed as platelet-activating facto-induced platelet aggregation at 60 uM by turbidimetric method; type: functional, Oryctolagus cuniculus
[29] = Antiplatelet activity against rabbit platelets assessed as collagen-induced platelet aggregation at 15 uM by turbidimetric method; type: functional, Oryctolagus cuniculus
[30] = Antiplatelet activity against human platelets in platelet rich plasma assessed as adrenaline-induced platelet aggregation at 450 uM pretreated 3 mins before adrenaline challenge by turbidimetric method; type: functional
[31] = Antiplatelet activity against rabbit platelets assessed as arachidonic acid-induced platelet aggregation at 15 uM by turbidimetric method; type: functional, Oryctolagus cuniculus
[32] = Antiplatelet activity against rabbit platelets assessed as collagen-induced platelet aggregation at 60 uM by turbidimetric method; type: functional, Oryctolagus cuniculus
[33] = Antiplatelet activity against rabbit platelets assessed as thrombin-induced platelet aggregation at 100 uM by turbidimetric method; type: functional, Oryctolagus cuniculus
[34] = Antiplatelet activity against rabbit platelets assessed as arachidonic acid-induced platelet aggregation at 100 uM by turbidimetric method; type: functional, Oryctolagus cuniculus
[35] = Antiplatelet activity against rabbit platelets assessed as platelet-activating facto-induced platelet aggregation at 100 uM by turbidimetric method; type: functional, Oryctolagus cuniculus
[36] = Antiplatelet activity against rabbit platelets assessed as collagen-induced platelet aggregation at 100 uM by turbidimetric method; type: functional, Oryctolagus cuniculus

## COc1cc(O)c2c(=O)cc(-c3ccc(O)cc3O)oc2c1 [ARTOCARPETIN]
[1]
  IC50: 95.9 µM
[2]
  Activity: 0%
[3]
  Activity: 73.8%
[4]
  Activity: 85.7%
[5]
  Activity: 88.2%

## COc1ccc2c(c1)c(CC(=O)O)c(C)n2C(=O)c1ccc(Cl)cc1 [INDOMETHACIN]
[6]
  IC50: 0.7 µg/mL (≈ 1.96 µM)

## CC(C)=CCc1cc([C@@H]2CCc3ccc(O)cc3O2)c(CC=C(C)C)c(O)c1O [KAZINOL A]
[7]
  Activity: 65.8%
[1]
  IC50: 11.4 µM
[8]
  IC50: 54.6 µM
[9]
  Activity: 0%
[10]
  IC50: 20.7 µM
[11]
  Activity: 0%

## COc1cc(O)c2c(c1)O[C@H](c1ccc(O)cc1O)CC2=O [ARTOCARPANONE]
[1]
  IC50: 41 µM
[2]
  Activity: 0%
[3]
  Activity: 1.1%
[4]
  Activity: 38.6%
[10]
  IC50: 90.7 µM
[5]
  Activity: 90.2%

## COc1cc(O)c2c(c1)O[C@H](c1c(OC)cc(OC)cc1OC)CC2=O
[2]
  Activity: 27.9%
[3]
  Activity: 66.1%
[4]
  Activity: 81%
[5]
  Activity: 83.1%

## COc1cc2oc(-c3ccc(O)cc3O)c(CC=C(C)C)c(=O)c2c(O)c1/C=C/C(C)C [ARTOCARPIN]
[12]
  Activity: 87.3%
[13]
  Activity: 76%
[14]
  Activity: 84%
[15]
  Activity: 54.8%

## CC(=O)Oc1ccccc1C(=O)O [ASPIRIN]
[16]
  Activity: 85.4%
[17]
  Activity: 39.6%
[18]
  Activity: 90.5%
[19]
  Activity: 0%
[20]
  Activity: 91.9%

## CC(C)=CCc1c([C@@H]2CCc3ccc(O)cc3O2)cc2c(c1O)OC(C)(C)C=C2 [KAZINOL B]
[1]
  IC50: 32.6 µM
[16]
  Activity: 4%
[21]
  Activity: 27.9%
[22]
  Activity: 23.1%
[18]
  Activity: 42.6%
[19]
  Activity: 0%
[20]
  Activity: 79.8%
[6]
  IC50: 155.3 µg/mL (≈ 396 µM)
[23]
  Activity: 27.6%

## CC(=O)Oc1cc2c(cc1OC(C)=O)-c1oc3c(CC=C(C)C)c4c(c(OC(C)=O)c3c(=O)c1C(C=C(C)C)O2)C=CC(C)(C)O4 (stereo unspecified) [CYCLOHETERPHYLLIN PERACETATE]
[24]
  Activity: 78.3%
[25]
  Activity: 74%
[26]
  Activity: 73%
[27]
  Activity: 91%

## CC(C)=CCc1cc(C(=O)/C=C/c2ccc(O)c(O)c2)c(O)cc1O [BROUSSOCHALCONE A]
[1]
  IC50: 6.8 µM
[8]
  IC50: 119 µM
[22]
  Activity: 74%
[10]
  IC50: 22.4 µM
[28]
  Activity: 67.8%
[29]
  Activity: 55.1%
[6]
  IC50: 19.4 µg/mL (≈ 57 µM)
[30]
  Activity: 40.1%
[31]
  Activity: 0%
[32]
  Activity: 0%

## COc1cc(OC)c([C@@H]2CC(=O)c3c(O)cc(OC)c(CC=C(C)C)c3O2)c(OC)c1
[2]
  Activity: 81.5%
[3]
  Activity: 68.9%
[4]
  Activity: 84.5%
[5]
  Activity: 85.7%

## CC(C)=CCc1c([C@@H]2CCc3ccc(O)cc3O2)cc2c(c1O)OC(C)(C)C(O)C2O (stereo partly specified) [BROUSSOFLAVAN A]
[1]
  IC50: 86.7 µM
[2]
  Activity: 0%
[3]
  Activity: 0%
[4]
  Activity: 87.9%
[5]
  Activity: 92%

## COc1ccc2c(c1)OC(C=C(C)C)c1c-2oc2cc(O)c(/C=C/C(C)C)c(O)c2c1=O (stereo unspecified) [CYCLOARTOCARPIN A]
[1]
  IC50: 18.5 µM
[12]
  Activity: 89.9%
[10]
  IC50: 23.7 µM
[13]
  Activity: 86.5%
[14]
  Activity: 60.9%
[15]
  Activity: 39.5%

## CC(C)=CCc1c(-c2oc3c(CC=C(C)C)c(O)cc(O)c3c(=O)c2O)cc(O)c(O)c1CC=C(C)C [BROUSSOFLAVONOL E]
[1]
  IC50: 39.9 µM
[33]
  Activity: 91.8%
[34]
  Activity: 0%
[35]
  Activity: 86.4%
[36]
  Activity: 0%

## CC(C)=CCc1c(-c2cc(O)c(O)cc2O)oc2c(CC=C(C)C)c3c(c(O)c2c1=O)C=CC(C)(C)O3 [HETEROPHYLLIN]
[1]
  IC50: 49.8 µM
[33]
  Activity: 80.2%
[34]
  Activity: 0%
[10]
  IC50: 48.7 µM
[35]
  Activity: 32%
[36]
  Activity: 0%

## CC(C)=CCc1cc(-c2oc3c(CC=C(C)C)c(O)cc(O)c3c(=O)c2O)ccc1O [BROUSSOFLAVONOL F]
[1]
  IC50: 16.9 µM
[33]
  Activity: 93.1%
[34]
  Activity: 0%
[35]
  Activity: 84.8%
[6]
  IC50: 17.5 µg/mL (≈ 41.4 µM)
[36]
  Activity: 0%

## CC(C)=CCc1c2c(c(O)c3c(=O)c4c(oc13)-c1cc(O)c(O)cc1OC4C=C(C)C)C=CC(C)(C)O2 (stereo unspecified) [CYCLOHETERPHYLLIN]
[1]
  IC50: 10.9 µM
[2]
  Activity: 0%
[3]
  Activity: 33.8%
[21]
  Activity: 61.6%
[22]
  Activity: 35.5%
[4]
  Activity: 4.5%
[6]
  IC50: 26.1 µg/mL (≈ 51.9 µM)
[5]
  Activity: 82.4%
[23]
  Activity: 55.1%

## CC(C)=CCc1cc2c(cc1O)O/C(=C\c1ccc(O)c(O)c1)C2=O [BROUSSOAURONE A]
[1]
  IC50: 15.4 µM
[2]
  Activity: 0%
[3]
  Activity: 0%
[4]
  Activity: 89.5%
[6]
  IC50: 22.7 µg/mL (≈ 67.1 µM)
[5]
  Activity: 93.7%

## CC(=O)Oc1cc2c(cc1OC(C)=O)-c1oc3c(CC=C(C)C)c4c(c(O)c3c(=O)c1C(C=C(C)C)O2)C=CC(C)(C)O4 (stereo unspecified) [CYCLOHETERPHYLLIN DIACETATE]
[24]
  Activity: 86%
[25]
  Activity: 83.4%
[26]
  Activity: 4.9%
[27]
  Activity: 91.3%

## COc1cc(O)c2c(=O)cc(-c3ccc(O)cc3O)oc2c1CC=C(C)C [ARTOCARPETIN A]
[2]
  Activity: 61.8%
[3]
  Activity: 46.8%
[4]
  Activity: 59.8%
[5]
  Activity: 80.4%

## CC(=O)Oc1cc(O)c(C(=O)/C=C/c2ccc(OC(C)=O)c(OC(C)=O)c2)cc1CC=C(C)C [BROUSSOCHALCONE TRIACETATE]
[1]
  IC50: 91.7 µM
[34]
  Activity: 9.6%
[2]
  Activity: 9.3%
[3]
  Activity: 23.1%
[4]
  Activity: 0%
[35]
  Activity: 82.1%
[5]
  Activity: 88.4%
